Measurements taken from patent US20260166128A1, “HUMAN AMYLIN ANALOG, AND DERIVATIVE THEREOF AND USE THEREOF” (priority 2022, published 2026).
Numbered stars: 1 amine (or outer) side, 2 acyl side, 3 side chain; on linkers, the order of the positions; unused ones are H or OH. Bridge positions count the residues as written; N and C are the ends. Square brackets hold non-standard residues; d marks the D form. Side chains are listed from the residue outwards. Peptide text beside a SMILES is read from it. * marks the point of attachment. C20 diacid = O=C(O)CCCCCCCCCCCCCCCCCCC(=O)*; C18 diacid = O=C(O)CCCCCCCCCCCCCCCCC(=O)*; γGlu = O=C(O)[C@H](CCC(=O)[*:2])N[*:1]; Hyp = O=C(O)[C@@H]1C[C@@H](O)CN1; AEEA = NCCOCCOCC(=O)O

Columns and labels:
[1] = Freeze-thaw stability of derivatives (freeze-thaw yield by liquid chromatography); type: physicochemical; conditions: for Dissolution property: appearance after dissolution at 0.2 mg/ml in 20 mM phosphate buffer solution (PB) (pH 7.0); for Freeze storage property: appearance after overnight storage at −20° C. and thawing to room temperature, 0.2 mg/ml in 20 mM PB (pH 7.0); for Freeze storage yield: concentration of polypeptide after freezing and thawing / concentration before, by liquid chromatography, −20° C. overnight
How it was run: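 Lyophilised peptide derivative dissolved at 0.2 mg/ml in 20 mM phosphate buffer, pH 7.0, frozen overnight at −20° C, then thawed at room temperature. Peptide concentration before and after freeze-thaw measured by reversed-phase HPLC on centrifuged supernatant; yield = post-thaw/pre-thaw concentration.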

human amylin receptor = target: T1, human amylin receptor (Homo sapiens, UniProt O60896+P30988); experiment: Luciferase assay of amylin derivatives in amylin receptor/CRE-luc CHO cell line; type: cell-based; conditions: CHO-K1/Ga15/AMY3 CRE-luc cells, 24 hours incubation, F12 medium containing 10% FBS; read-out: EC50
T1 construct: host or cells: CHO-K1/Ga15/AMY3 cells, further stably transfected with a CRE-luciferase plasmid
T1 sequence (P30988 25-474): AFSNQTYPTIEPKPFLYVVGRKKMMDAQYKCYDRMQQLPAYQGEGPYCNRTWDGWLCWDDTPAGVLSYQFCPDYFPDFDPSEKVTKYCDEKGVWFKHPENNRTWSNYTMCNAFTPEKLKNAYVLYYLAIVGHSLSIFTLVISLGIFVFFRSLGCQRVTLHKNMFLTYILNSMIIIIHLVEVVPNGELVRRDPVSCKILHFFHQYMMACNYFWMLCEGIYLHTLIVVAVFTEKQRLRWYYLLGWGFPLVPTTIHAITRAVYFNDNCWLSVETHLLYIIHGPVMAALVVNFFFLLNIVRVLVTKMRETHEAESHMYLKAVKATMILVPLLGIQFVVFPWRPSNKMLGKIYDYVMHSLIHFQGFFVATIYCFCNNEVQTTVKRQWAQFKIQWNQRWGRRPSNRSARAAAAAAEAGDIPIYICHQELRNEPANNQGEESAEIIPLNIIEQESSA
T1 sequence (O60896 24-148 partner): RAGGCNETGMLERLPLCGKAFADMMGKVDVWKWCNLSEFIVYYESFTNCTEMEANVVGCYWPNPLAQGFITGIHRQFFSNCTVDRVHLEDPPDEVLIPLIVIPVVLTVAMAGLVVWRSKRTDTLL
Protocol: The experiment was intended to detect the activity or efficacy of the amylin derivatives on a human amylin receptor in vitro by luciferase assay.
50 μL of growth medium (F12 medium containing 10% FBS) was added into each well of a white 96-well plate, and the stably transfected amylin/CRE-lue CHO cells were inoculated into the white 96-well plate at a density of about 20,000 cells/well for activity determination.

| SMILES | Dissolution property [1] | Freeze storage property [1] | Freeze storage yield [1] | EC50 (human amylin receptor) |
| --- | --- | --- | --- | --- |
| CC[C@H](C)[C@H](NC(=O)[C@@H]1CCCN1C(=O)CNC(=O)[C@H](CC(C)C)NC(=O)[C@H](CCCCNC(=O)COCCOCCNC(=O)COCCOCCNC(=O)CC[C@H](NC(=O)CCCCCCCCCCCCCCCCCCC(=O)O)C(=O)O)NC(=O)[C@H](CC(N)=O)NC(=O)[C@H](CO)NC(=O)[C@H](CO)NC(=O)[C@H](Cc1c[nH]cn1)NC(=O)[C@H](CCCNC(=N)N)NC(=O)[C@H](CC(C)C)NC(=O)[C@H](Cc1ccccc1)NC(=O)[C@H](CC(=O)O)NC(=O)[C@H](C)NC(=O)[C@H](CC(C)C)NC(=O)[C@H](CCCNC(=N)N)NC(=O)[C@H](CCC(N)=O)NC(=O)[C@@H](NC(=O)[C@H](C)NC(=O)[C@@H]1CSSC[C@H](NC(=O)[C@@H](N)CCCNC(=N)N)C(=O)N[C@@H](CC(N)=O)C(=O)N[C@@H]([C@@H](C)O)C(=O)N[C@@H](C)C(=O)N[C@@H]([C@@H](C)O)C(=O)N1)[C@@H](C)O)C(=O)N[C@@H](CC(C)C)C(=O)N1CCC[C@H]1C(=O)N1CCC[C@H]1C(=O)N[C@H](C(=O)N[C@@H](CC(N)=O)C(=O)N[C@H](C(=O)NCC(=O)N[C@@H](CO)C(=O)N[C@@H](CC(N)=O)C(=O)N[C@H](C(=O)N1C[C@H](O)C[C@H]1C(N)=O)[C@@H](C)O)C(C)C)[C@@H](C)O [PD087] (H-RCNTATCATQRLADFLRHSSNK([AEEA-AEEA-γGlu-C20 diacid])LGPILPPTNVGSNT[Hyp]-NH2; disulfide 2-7 (inferred); N-terminus assumed) | Clear | Clear | 102.65% | 32 pM |
| CC[C@H](C)[C@H](NC(=O)[C@@H]1CCCN1C(=O)CNC(=O)[C@H](CC(C)C)NC(=O)[C@H](CCCCNC(=O)CC[C@H](NC(=O)CCCCCCCCCCCCCCCCC(=O)O)C(=O)O)NC(=O)[C@H](CC(N)=O)NC(=O)[C@H](CO)NC(=O)[C@H](CO)NC(=O)[C@H](Cc1c[nH]cn1)NC(=O)[C@H](CCCNC(=N)N)NC(=O)[C@H](CC(C)C)NC(=O)[C@H](Cc1ccccc1)NC(=O)[C@H](CC(=O)O)NC(=O)[C@H](C)NC(=O)[C@H](CC(C)C)NC(=O)[C@H](CCCNC(=N)N)NC(=O)[C@H](CCC(N)=O)NC(=O)[C@@H](NC(=O)[C@H](C)NC(=O)[C@@H]1CSSC[C@H](NC(=O)[C@@H](N)CCCNC(=N)N)C(=O)N[C@@H](CC(N)=O)C(=O)N[C@@H]([C@@H](C)O)C(=O)N[C@@H](C)C(=O)N[C@@H]([C@@H](C)O)C(=O)N1)[C@@H](C)O)C(=O)N[C@@H](CC(C)C)C(=O)N1CCC[C@H]1C(=O)N1CCC[C@H]1C(=O)N[C@H](C(=O)N[C@@H](CC(N)=O)C(=O)N[C@H](C(=O)NCC(=O)N[C@@H](CO)C(=O)N[C@@H](CC(N)=O)C(=O)N[C@H](C(=O)N1C[C@H](O)C[C@H]1C(N)=O)[C@@H](C)O)C(C)C)[C@@H](C)O [PD088] (H-RCNTATCATQRLADFLRHSSNK([γGlu-C18 diacid])LGPILPPTNVGSNT[Hyp]-NH2; disulfide 2-7 (inferred); N-terminus assumed) | Clear | Clear | 120.04% | 13 pM |
